Data from patent US6423869B1, “Polyol-amino acid compounds having anti-helicobacter pylori activity” (Takeda Chemical Industries, Inc., priority 1997, dated 2002).
≈ marks a conversion by molar mass, not a printed value. One block for each compound: values may come before it.

Legend:
[1] = tested on: Helicobacter pylori (NCTC 11637); experiment: In vitro antibacterial test, agar dilution method (MIC); format: cell-based; details: NCTC11637, 96 h, 7% horse blood-Brucella agar, 37° C., 4 days, read-out: MIC (minimal inhibitory concentration)
[2] = tested on: Helicobacter pylori TN2GF4; experiment: Gastric infection in mongolian gerbils, repetitive administration; format: in vivo
Description: Five-week-old MON/Jms/Gbs mongolian gerbils were inoculated intragastrically with 10^7.58 CFU of Helicobacter pylori TN2GF4. Four weeks after infection, a compound of the Example 47, suspended in 0.5% methyl cellulose, was administered orally at a dose of 30 mg/kg twice daily for 2 days. The animals were killed on the day after the final treatment. Stomachs were removed and homogenized with 3 ml of brucella broth, and the bacterial count in the homogenates was determined by serial dilution and titration on modified Skirrow's plates. The plates were incubated at 37° C. for 4 days in a microaerobic atmosphere prior to counting. No detectable Helicobacter pylori in the stomach on the day after final treatment was defined as clearance. Effect of repetitive administration of a compound of the Example 47 against gastric infection caused by H. pylori TN2GF4 in MON/JmsIGbs mongolian gerbils

[3] = tested on: gram-negative bacteria; details: cited from earlier work
[4] = tested on: Helicobacter pylori TN2F4; experiment: In vivo antibacterial test in infected mice; details: mice (Crj: ICR), 50 mg/kg orally twice daily for 2 days, cleared/total (%), hydrochloride
Description: In vivo Antibacterial Test
Mice (Crj: ICR, male, aged 5 weeks) were deprived of food for 20 hours and 6.17×10^7 CFU/mouse of Helicobacter pylori TN2F4 was inoculated into the stomach. Starting 11 days after infection, 50 mg/kg of the test compound suspended in 0.5% methyl cellulose/water was adminstered orally twice. daily, in the morning and evening, for 2 consecutive days. On the day following the last dose, the stomach was isolated from the infected mouse and homogenized and a 10-fold dilution series of the homogenate was inoculated on activated charcoal-modified Skirrow medium. Cultivation was carried out microaerobically at 37° C. for 4 days and the eradication rate was determined according to growth of the bacteria.
The number of bacteria was expressed in mean±standard error and the statistical analysis was made in comparison with the control group by the Dunnett method.

[5] = 30 mg/kg twice daily for 2 days

- MIC [1]: 0.025 µg/mL (≈ 0.0382 µM)
SMILES: CC(C)C[C@H](NC(=O)[C@@H](NC(=O)[C@@H](N)C(C)C)C(C)C)C(=O)N[C@@H](CO)[C@@H](O)[C@@H](O)[C@H](O)C(=O)N[C@@H](CC(=O)O)c1ccccc1 [HC-70I, (S)-3-[(2S,3R,4R,5S)-2,3,4,6-tetrahydroxy-5-(L-valyl-L-valyl-L-leucyl)aminohexanoyl]amino-3-phenylpropionic acid]

SMILES: C=CC[C@H](N)C(=O)N[C@@H](CO)[C@@H](O)[C@@H](O)[C@H](O)C(=O)N[C@@H](CC(=O)O)c1ccccc1 [Example 47, (S)-3-[(2S,3R,4R,5S)-5-((S)-2-amino-4-pentenoyl)amino-2,3,4,6-tetrahydroxyhexanoyl]amino-3-phenylpropionic acid]
- clearance attained (gerbils cleared out of total) [2, 5]: 2 out of 4
- number of infecting organism [2, 5]: decreased the number of infecting organism
- Bacterial recovery Log CFU/gastric wall Mean ± SE ([2]; MON/Jms/Gbs mongolian gerbils, 30 mg/kg orally twice daily for 2 days): 2.23 ± 0.44 Log CFU/gastric wall

SMILES: NCC1OC(OC2C(N)CC(NC(=O)C(O)C(O)C(O)C(N)CO)C(O)C2OC2OC(CO)C(O)C2O)C(N)C(O)C1O (stereo not shown)
- activity against gram-negative bacteria [3]: active against gram-negative bacteria

SMILES: CC(C)C[C@H](NC(=O)[C@@H](N)C(C)C)C(=O)N[C@@H](CO)[C@@H](O)[C@@H](O)[C@H](O)C(=O)N[C@@H](CC(=O)O)c1ccccc1.Cl [HC-70II.HCl, (S)-3-[(2S,3R,4R,5S)-2,3,4,6-tetrahydroxy-5-(L-valyl-L-leucyl)aminohexanoyl]amino-3-phenylpropionate hydrochloride]
- Clearance rate (%) [4]: 100%

- MIC [1]: 0.025 µg/mL (≈ 0.0451 µM)
SMILES: CC(C)C[C@H](NC(=O)[C@@H](N)C(C)C)C(=O)N[C@@H](CO)[C@@H](O)[C@@H](O)[C@H](O)C(=O)N[C@@H](CC(=O)O)c1ccccc1 [HC-70II, (S)-3-[(2S,3R,4R,5S)-2,3,4,6-tetrahydroxy-5-(L-valyl-L-leucyl)aminohexanoyl]amino-3-phenylpropionic acid]
